Test system: 18S A site model
Experiment: ESI-FTICR mass spectrometric (MASS) binding assay, mass-tagged 18S A-site 27-mer RNA model
Set-up: species or system eukaryotic
Conditions: aminoglycosides 500 nM each, mixture with untagged 16S and tagged 18S
Protocol: The ESI-FTICR mass spectrum depicted in FIG. 26 was acquired from a […] mixture of untagged 16S and tagged 18S in the presence of an equimolar mixture of five aminoglycosides. It is to be understood that other biomolecules may be used in place of the aminoglycosides. The aminoglycosides have been selected from two classes of 2-deoxystreptamines: 4,5-disubstituted (paromomycin, and lividomycin), and 4,6-disubstituted (tobramycin, sisomicin, and bekanamycin), present at 500 nM each. Complexes corresponding to 1:1 binding of individual aminoglycosides were observed between 16S and all members of the aminoglycoside mixture, with the apparent affinities estimated from the abundances of the respective complexes differing substantially. Signal intensities from the complexes with paromomycin (m/z 1925.572) and lividomycin (m/z 1954.790) are consistent with MS-measured dissociation constants of 110 nM and 28 nM, respectively. The intensities of 16S complexes with tobramycin (m/z 1895.960), bekanamycin (m/z 1899.171), and sisomicin (m/z 1891.972) were reduced, consistent with solution dissociation constants of […]. Wang, et al., Biochemistry, 1997, 36, 768-779. […] The average mass measurement error obtained for the complexes in FIG. 26 is 2.1 ppm when m/z differences are measured between the most abundant (4 ^13C) isotope peak of 16S and each complex. […]

Compound: NC[C@@H]1O[C@H](O[C@H]2[C@@H](O)[C@H](O[C@@H]3[C@@H](O)[C@H](N)C[C@H](N)[C@H]3O[C@H]3O[C@H](CO)[C@@H](O)[C@H](O)[C@H]3N)O[C@@H]2CO)[C@H](N)[C@@H](O)[C@@H]1O [paromomycin]
- complexes observed with 18S (in words): complete absence of complexes

Reference: US6656690B2, “Mass spectrometric methods for biomolecular screening” (priority 1998, dated 2003)
